In patent publication US9828396B2, “Alkyne compounds for treatment of complement mediated disorders” (Achillion Pharmaceuticals, Inc., priority 2014, dated 2017):

Biological target: Human factor D (Homo sapiens (Human), UniProt P00746)
Assay: Human Factor D Assay
Format: biochemical
Details: Human factor D 80 nM, substrate Z-L-Lys-SBzl, assay of Example 12
Method in brief: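 Serum-purified human factor D (80 nM final) was preincubated 5 min at room temperature with compound in 50 mM Tris, 1 M NaCl, pH 7.5. Z-L-Lys-SBzl and DTNB (100 μM each) were added and OD405 followed kinetically over 30 min; IC50 from non-linear regression of percent inhibition.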

Chain of Human factor D (P00746 26-253): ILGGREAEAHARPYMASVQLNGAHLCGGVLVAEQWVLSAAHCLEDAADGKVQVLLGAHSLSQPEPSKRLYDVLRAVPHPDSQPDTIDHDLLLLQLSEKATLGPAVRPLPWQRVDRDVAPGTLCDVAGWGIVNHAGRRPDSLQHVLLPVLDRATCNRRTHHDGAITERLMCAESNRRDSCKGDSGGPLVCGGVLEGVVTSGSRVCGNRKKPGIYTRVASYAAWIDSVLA

Compound | IC50
NC(=O)c1nn(CC(=O)N2C[C@H](F)C[C@H]2C(=O)Nc2cncc(C(F)(F)F)n2)c2ccc(C#Cc3ncc(F)cn3)cc12 [Compound 70, 1-(2-((2S,4R)-4-fluoro-2-(6-(trifluoromethyl)pyrazin-2-ylcarbamoyl)pyrrolidin-1-yl)-2-oxoethyl)-5-((5-fluoropyrimidin-2-yl)ethynyl)-1H-indazole-3-carboxamide] | < 1000 nM
NC(=O)c1nn(CC(=O)N2C[C@H](F)C[C@H]2C(=O)Nc2ccc3cccc(Cl)c3n2)c2ccc(C#Cc3ncc(F)cn3)cc12 [Compound 71, 1-(2-((2S,4R)-2-(8-chloroquinolin-2-ylcarbamoyl)-4-fluoropyrrolidin-1-yl)-2-oxoethyl)-5-((5-fluoropyrimidin-2-yl)ethynyl)-1H-indazole-3-carboxamide] | < 1000 nM
NC(=O)c1nn(CC(=O)N2[C@@H]3C[C@@H]3C[C@H]2C(=O)Nc2ccn(CC(F)(F)F)n2)c2ccc(C#Cc3ncc(F)cn3)cc12 [Compound 72, 5-((5-fluoropyrimidin-2-yl)ethynyl)-1-(2-oxo-2-((1R,3S,5R)-3-(1-(2,2,2-trifluoroethyl)-1H-pyrazol-3-ylcarbamoyl)-2-azabicyclo[3.1.0]hexan-2-yl)ethyl)-1H-indazole-3-carboxamide] | < 1000 nM
NC(=O)c1nn(CC(=O)N2C[C@H](F)C[C@H]2C(=O)Nc2cccc(-c3ccccc3Cl)c2F)c2ccc(C#Cc3cccnn3)cc12 [Compound 73, 1-(2-((2S,4R)-2-(2′-chloro-2-fluorobiphenyl-3-ylcarbamoyl)-4-fluoropyrrolidin-1-yl)-2-oxoethyl)-5-(pyridazin-3-ylethynyl)-1H-indazole-3-carboxamide] | < 1000 nM
NC(=O)c1nn(CC(=O)N2C[C@H](F)C[C@H]2C(=O)Nc2cc(C(F)(F)F)cc(Cl)n2)c2ccc(C#Cc3ncc(F)cn3)cc12 [Compound 74, 1-(2-((2S,4R)-2-(6-chloro-4-(trifluoromethyl)pyridin-2-ylcarbamoyl)-4-fluoropyrrolidin-1-yl)-2-oxoethyl)-5-((5-fluoropyrimidin-2-yl)ethynyl)-1H-indazole-3-carboxamide] | < 1000 nM
NC(=O)c1nn(CC(=O)N2C[C@H](F)C[C@H]2C(=O)Nc2cccc(Cl)n2)c2ccc(C#Cc3cccnn3)cc12 [Compound 75, 1-(2-((2S,4R)-2-(6-chloropyridin-2-ylcarbamoyl)-4-fluoropyrrolidin-1-yl)-2-oxoethyl)-5-(pyridazin-3-ylethynyl)-1H-indazole-3-carboxamide] | < 1000 nM
NC(=O)c1nn(CC(=O)N2C[C@H](F)C[C@H]2C(=O)Nc2ccc(C(F)(F)F)c(Cl)n2)c2ccc(C#Cc3ncc(F)cn3)cc12 [Compound 76, 1-(2-((2S,4R)-2-(6-chloro-5-(trifluoromethyl)pyridin-2-ylcarbamoyl)-4-fluoropyrrolidin-1-yl)-2-oxoethyl)-5-((5-fluoropyrimidin-2-yl)ethynyl)-1H-indazole-3-carboxamide] | < 1000 nM
NC(=O)c1nn(CC(=O)N2[C@@H]3C[C@@H]3C[C@H]2C(=O)Nc2cccc(Cl)n2)c2ccc(C#Cc3cccnn3)cc12 [Compound 77, 1-(2-((1R,3S,5R)-3-(6-chloropyridin-2-ylcarbamoyl)-2-azabicyclo[3.1.0]hexan-2-yl)-2-oxoethyl)-5-(pyridazin-3-ylethynyl)-1H-indazole-3-carboxamide] | < 1000 nM
COc1nc(C#Cc2ccc3c(c2)c(C(N)=O)nn3CC(=O)N2C[C@H](F)C[C@H]2C(=O)Nc2cccc(-c3ccccc3Cl)c2F)ncc1F [Compound 78, 1-(2-((2S,4R)-2-(2′-chloro-2-fluorobiphenyl-3-ylcarbamoyl)-4-fluoropyrrolidin-1-yl)-2-oxoethyl)-5-((5-fluoro-4-methoxypyrimidin-2-yl)ethynyl)-1H-indazole-3-carboxamide] | < 1000 nM
NC(=O)c1nn(CC(=O)N2C[C@H](F)C[C@H]2C(=O)Nc2cccc(-c3ccccc3Cl)c2F)c2ccc(C#Cc3ccnnc3)cc12 [Compound 79, 1-(2-((2S,4R)-2-(2′-chloro-2-fluorobiphenyl-3-ylcarbamoyl)-4-fluoropyrrolidin-1-yl)-2-oxoethyl)-5-(pyridazin-4-ylethynyl)-1H-indazole-3-carboxamide] | < 1000 nM
